Data taken from the NIST ThermoML archive (doi:10.1016/j.jct.2013.01.013).

Test: xn = mol fraction of the nth substance listed
Conditions: 101 kPa, Liquid; for viscosity: Capillary tube (Ostwald / Ubbelohde) method; for speed of sound: Linear variable-path acoustic interferometer; for mass density: Pycnometric method

C=C(C)C(=O)OC [methyl methacrylate] + CN(C)C=O
Conditions	mass density [kg/m3]	speed of sound [m/s]	viscosity [mPa·s]
288.15 K, x1 = 0.0696	953.35	1484.1	0.905
288.15 K, x1 = 0.1417	953.07	1464.4	0.868
288.15 K, x1 = 0.211	952.8	1445.5	0.8355
288.15 K, x1 = 0.2855	952.5	1425.2	0.8041
288.15 K, x1 = 0.3573	952.22	1405.4	0.7765
288.15 K, x1 = 0.4308	951.91	1384.8	0.7513
288.15 K, x1 = 0.5042	951.58	1363.9	0.729
288.15 K, x1 = 0.578	951.23	1342.6	0.7083
288.15 K, x1 = 0.6552	950.86	1320	0.6885
288.15 K, x1 = 0.7204	950.53	1300.7	0.6742
288.15 K, x1 = 0.7873	950.19	1280.7	0.6612
288.15 K, x1 = 0.8548	949.84	1260.4	0.6505
288.15 K, x1 = 0.9268	949.47	1238.7	0.6417
288.15 K, x1 = 1	949.1	1216.8	0.634
293.15 K, x1 = 0.0696	948.76	1466.8	0.834
293.15 K, x1 = 0.1417	948.39	1447.2	0.8009
293.15 K, x1 = 0.211	948.03	1428.4	0.7713
293.15 K, x1 = 0.2855	947.64	1408.2	0.742
293.15 K, x1 = 0.3573	947.25	1388.5	0.717
293.15 K, x1 = 0.4308	946.85	1368	0.6941
293.15 K, x1 = 0.5042	946.43	1347.2	0.6736
293.15 K, x1 = 0.578	946	1326	0.6552
293.15 K, x1 = 0.6552	945.53	1303.5	0.6382
293.15 K, x1 = 0.7204	945.13	1284.3	0.6261
293.15 K, x1 = 0.7873	944.72	1264.4	0.6149
293.15 K, x1 = 0.8548	944.29	1244.1	0.6055
293.15 K, x1 = 0.9268	943.83	1222.5	0.598
293.15 K, x1 = 1	943.37	1200.5	0.5903
298.15 K, x1 = 0.0696	944.17	1450	0.7818
298.15 K, x1 = 0.1417	943.71	1430.6	0.7509
298.15 K, x1 = 0.211	943.26	1411.8	0.7233
298.15 K, x1 = 0.2855	942.77	1391.5	0.6958
298.15 K, x1 = 0.3573	942.29	1371.8	0.672
298.15 K, x1 = 0.4308	941.79	1351.3	0.651
298.15 K, x1 = 0.5042	941.28	1330.4	0.632
298.15 K, x1 = 0.578	940.76	1309.2	0.6151
298.15 K, x1 = 0.6552	940.21	1286.7	0.6
298.15 K, x1 = 0.7204	939.73	1267.4	0.5885
298.15 K, x1 = 0.7873	939.24	1247.4	0.5786
298.15 K, x1 = 0.8548	938.74	1227.1	0.57
298.15 K, x1 = 0.9268	938.19	1205.3	0.5625
298.15 K, x1 = 1	937.63	1183.6	0.5544
303.15 K, x1 = 0.0696	939.58	1430.3	0.737
303.15 K, x1 = 0.1417	939.03	1411.3	0.7088
303.15 K, x1 = 0.211	938.49	1393	0.683
303.15 K, x1 = 0.2855	937.9	1373.1	0.6568
303.15 K, x1 = 0.3573	937.33	1353.7	0.6346
303.15 K, x1 = 0.4308	936.73	1333.6	0.6148
303.15 K, x1 = 0.5042	936.13	1313.1	0.5972
303.15 K, x1 = 0.578	935.52	1292.3	0.5817
303.15 K, x1 = 0.6552	934.88	1270.3	0.5675
303.15 K, x1 = 0.7204	934.33	1251.4	0.5575
303.15 K, x1 = 0.7873	933.76	1231.8	0.5486
303.15 K, x1 = 0.8548	933.19	1211.8	0.5408
303.15 K, x1 = 0.9268	932.55	1190.4	0.5331
303.15 K, x1 = 1	931.89	1168.5	0.5251
308.15 K, x1 = 0.0696	934.99	1411	0.694
308.15 K, x1 = 0.1417	934.35	1392.3	0.6678
308.15 K, x1 = 0.211	933.72	1374.3	0.6435
308.15 K, x1 = 0.2855	933.03	1354.7	0.6191
308.15 K, x1 = 0.3573	932.36	1335.6	0.5978
308.15 K, x1 = 0.4308	931.67	1315.7	0.5793
308.15 K, x1 = 0.5042	930.98	1295.5	0.563
308.15 K, x1 = 0.578	930.28	1275	0.5488
308.15 K, x1 = 0.6552	929.55	1253.3	0.5358
308.15 K, x1 = 0.7204	928.93	1234.7	0.5268
308.15 K, x1 = 0.7873	928.28	1215.4	0.5188
308.15 K, x1 = 0.8548	927.63	1195.7	0.5113
308.15 K, x1 = 0.9268	926.91	1174.4	0.5038
308.15 K, x1 = 1	926.15	1152.6	0.496
313.15 K, x1 = 0.0696	930.4	1393.7	0.662
313.15 K, x1 = 0.1417	929.67	1375.1	0.6373
313.15 K, x1 = 0.211	928.95	1357.1	0.6142
313.15 K, x1 = 0.2855	928.16	1337.5	0.5913
313.15 K, x1 = 0.3573	927.4	1318.4	0.5713
313.15 K, x1 = 0.4308	926.61	1298.4	0.5529
313.15 K, x1 = 0.5042	925.83	1278.3	0.5375
313.15 K, x1 = 0.578	925.04	1257.9	0.5237
313.15 K, x1 = 0.6552	924.22	1236.2	0.5115
313.15 K, x1 = 0.7204	923.53	1217.7	0.503
313.15 K, x1 = 0.7873	922.81	1198.4	0.4951
313.15 K, x1 = 0.8548	922.07	1178.7	0.4875
313.15 K, x1 = 0.9268	921.26	1157.4	0.4796
313.15 K, x1 = 1	920.41	1135.4	0.4723
318.15 K, x1 = 0.0696	925.81	1375.2	0.6419
318.15 K, x1 = 0.1417	924.99	1356.8	0.6179
318.15 K, x1 = 0.211	924.18	1338.9	0.5953
318.15 K, x1 = 0.2855	923.29	1319.4	0.5728
318.15 K, x1 = 0.3573	922.44	1300.3	0.553
318.15 K, x1 = 0.4308	921.55	1280.5	0.5345
318.15 K, x1 = 0.5042	920.68	1260.5	0.5185
318.15 K, x1 = 0.578	919.8	1240.2	0.5045
318.15 K, x1 = 0.6552	918.89	1218.7	0.4925
318.15 K, x1 = 0.7204	918.12	1200.3	0.4837
318.15 K, x1 = 0.7873	917.33	1181.2	0.475
318.15 K, x1 = 0.8548	916.51	1161.6	0.467
318.15 K, x1 = 0.9268	915.61	1140.4	0.4583
318.15 K, x1 = 1	914.66	1118.3	0.4499
